As usually defined, the bioavailability is dose-corrected exposure relative to a reference, in per cent. A lower bioavailability goes with little systemic uptake. In general, AUC(0-inf) refers to the area under the concentration-time curve extrapolated to infinity. Low values mean low exposure, high ones high exposure. One may read the half-life as how long it takes for the measured level to halve. For orientation: MRT last means a mean duration of stay, worked out from the concentration-time curve. As a reminder, the Cmax is the maximum level reached in the sampled fluid or tissue. As usually defined, the AUC(0-t) is exposure summed from dosing to a finite time, without extrapolation to infinity. Low values mean low exposure, high ones high exposure. Broadly, the Tmax is the time from dosing to the highest level. What is called clearance is the rate of elimination divided by the concentration. In general, CL/F refers to the apparent clearance, not corrected for the fraction that reaches the circulation.

Molecules are shown by their SMILES.

Series [1] in a line: in vivo. The following applies: Sprague-Dawley, rat, po, 10 mg/kg.
A short description of series [2]: in vivo. The following applies: Sprague-Dawley, rat, po, 10 mg/kg. The source holds these as a separate data set.
Series [3] can be described thus: in vivo. The following applies: Sprague-Dawley, rat, po, 10 mg/kg. This is another data set of the same source.
The nature of series [4]: in vivo. The following applies: Sprague-Dawley, rat, iv, 1 mg/kg.
The nature of series [5]: in vivo. The following applies: Sprague-Dawley, rat, iv, 1 mg/kg. This is another data set of the same source.
Series [6] in a line: in vivo. The following applies: Sprague-Dawley, rat, iv, 1 mg/kg. This is another data set of the same source.
A short description of series [7]: in vivo. The following applies: Sprague-Dawley, rat, iv, 1 mg/kg. The source holds these as a separate data set.
Series [8] can be described thus: in vivo. The following applies: Sprague-Dawley, rat, iv, 1 mg/kg. This is another data set of the same source.
Series [9] in a line: in vivo. The following applies: Sprague-Dawley, rat, iv, 1 mg/kg. This is another data set of the same source.
Series [10] in a line: in vivo. The following applies: Sprague-Dawley, rat, iv, 1 mg/kg. This is another data set of the same source.
Series [11] in a line: in vivo. The following applies: Sprague-Dawley, rat, po, 10 mg/kg. This is another data set of the same source.
Series [12] is described as follows: in vivo. The following applies: Sprague-Dawley, rat, po, 10 mg/kg. The source holds these as a separate data set.
Series [13] in a line: in vivo. The following applies: Sprague-Dawley, rat, po, 10 mg/kg. The source holds these as a separate data set.
A short description of series [14]: in vivo. The following applies: Sprague-Dawley, rat, po, 10 mg/kg. This is another data set of the same source.
The nature of series [15]: in vivo. The following applies: Sprague-Dawley, rat, po, 10 mg/kg. This is another data set of the same source.

With `CC#CC(=O)N1CCC(c2cnn3c(C(N)=O)c(-c4ccc(Oc5ccccc5)cc4)[nH]c23)CC1`, in series [1], the bioavailability at 24 h amounted to 10.8%. Further, the AUC(0-inf) at 24 h in series [2] is 0.213 µg·h/mL. Besides, the half-life at 24 h in series [3] was 5.98 h. Also, in [4], the MRT last at 12 h was determined as 2.19 h. This compound registered a maximum concentration (Cmax) at 12 h in [5] of 0.537 µg/mL. In [6], this compound yielded an AUC(0-t) at 12 h of 0.18 µg·h/mL. The AUC(0-inf) at 12 h in series [7] was 0.198 µg·h/mL. Also, the Tmax at 12 h in [8] turned out to be 1.98 min. The same compound had a half-life at 12 h in [9] of 2.35 h. For the same compound, the clearance at 12 h in series [10] was 5.1 L/h/kg. Moreover, in series [11], the CL/F at 24 h is 47.1 L/h/kg. This compound registered an AUC(0-t) at 24 h in series [12] of 0.167 µg·h/mL. In [13], the Tmax at 24 h was 0.83 h. In addition, in series [14], the MRT last at 24 h came out at 10.2 h. In series [15], this compound had a Cmax at 24 h of 0.016 µg/mL.

The record behind these values is ChEMBL document CHEMBL4842353, “Structure-activity relationship investigation for imidazopyrazole-3-carboxamide derivatives as novel selective inhibitors of Bruton's tyrosine kinase” (Eur J Med Chem, 2021).
